Source: US20070224635A1, “Regulated Stop Codon Readthrough” (Maxygen Holdings, Ltd., priority 2004, published 2007)

Assays:
premature UAG mutation = details: cultured mammalian cells; cited from earlier work
UAA stop codon = experiment: FACS detection of membrane-anchored FVII (FVII-UAA-GPI) in transfected CHO-K1 cells without antibiotic resistance gene; format: cell-based, Chinese hamster (CHO-K1 cells)
Description: The resulting PCR product encompassed the CMV promoter, the b-globin intron, the FVII gene, the UAA stop codon, the GPI anchor signal and the b-globin poly-adenylation signal (FIG. 11). The PCR product was purified and subsequently used to transfect CHO-Kcells with Lipofectamine™ 2000 (Invitrogen) as described above. Additionally, a flask containing CHO-K1 cells was incubated with Lipofectamine™ 2000 but without DNA as a negative control. Five hours after transfection, G-418 was added to the two culture flasks at a final concentration of 100 mg/L to promote translational readthrough. […] Labeled retroviral cell lines were analyzed by FACS for membrane-anchored recombinant FVII using a FACSVantage™ (Becton Dickinson) instrument with an excitation wave length of 488 nm and an emission filter of 585 nm.
Because expression of the recombinant FVII protein is correlated with expression of the FVII-GPI protein fusion arising from aminoglycoside-mediated translational readthrough, transgenic cells can be selected by means of FACS based on membrane-anchored FVII detection. […] Approximately 2500 cells from gate R3 of the transfected cells were sorted as a pool and grown for 9 days in the absence of antibiotic, after which translational readthrough was induced by treating the cells with G-418 at 100 mg/L for 2 days. […]

[1] = tested on: UAA stop codon (UAAC tetranucleotide); experiment: FACS analysis of membrane-anchored protein C after G-418-induced readthrough, PC-UAAC-GPI construct; format: cell-based, Chinese hamster (CHO-K1 cells); details: with G-418, background in absence of G-418 about 0.5%
Description: (§1) As a control, the retroviral vector pLenti6-PC-GPI was used to transfect HEK293FT cells and produce retrovirus particles. After 48 hours, supernatants containing retroviral particles were harvested, filter-sterilized to remove cell debris, and subsequently used to infect CHO-K1 cells. CHO-K1 cells were selected for resistance to the Blasticidin antibiotic at the concentration of 5 mg/l for 10 days. The resulting pools of Blasticidin-resistant cells were transferred into 6 culture flasks for each cell pool and grown to 25% confluency. To induce translational readthrough, the antibiotic G-418 was added to the culture flasks at final concentrations ranging from 12.5 mg/l to 100 mg/l and flasks were incubated for another 48 hours at 37° C. […] Labeled retroviral cell lines were analyzed by FACS for membrane-anchored recombinant PC using a FACScalibur™ (Becton Dickinson) instrument with an excitation wave length of 488 nm and an emission filter of 585 nm.
(§2) The results shown in FIG. 4 illustrate that both cell lines expressing the PC-UAAC-GPI and PC-UGAC-GPI reporters display PC at the cell surface in the presence of aminoglycoside. […] Furthermore, the amount of recombinant membrane-anchored PC is more abundant for the PC-UGAC-GPI construct than for the PC-UAAC-GPI construct, and this applies to all aminoglycoside concentrations that were assessed.

[2] = tested on: UGA stop codon (UGAC tetranucleotide); experiment: FACS analysis of membrane-anchored protein C after G-418-induced readthrough, PC-UGAC-GPI construct; format: cell-based, Chinese hamster (CHO-K1 cells); details: with G-418, background in absence of G-418 about 13%
Description: as §1, §2

[3] = tested on: nonsense mutation in CFTR; details: cell line carrying a nonsense mutation in CFTR; cited from earlier work

NC[C@@H]1O[C@H](O[C@H]2[C@@H](O)[C@H](O[C@@H]3[C@@H](O)[C@H](N)C[C@H](N)[C@H]3O[C@H]3O[C@H](CO)[C@@H](O)[C@H](O)[C@H]3N)O[C@@H]2CO)[C@H](N)[C@@H](O)[C@@H]1O [paromomycin]
synthesis of full-size protein from mutant gene (premature UAG mutation): partially restore the synthesis of a full-size protein

CN[C@@H]1[C@@H](O)[C@@H](O[C@@H]2[C@@H](O)[C@H](O[C@H]3O[C@H]([C@@H](C)O)[C@@H](O)[C@H](O)[C@H]3N)[C@@H](N)C[C@H]2N)OC[C@]1(C)O [G-418]
cells positive for FVII display, second FACS round (UAA stop codon; G-418 100 mg/L for 2 days after 9 days growth, non-transfected control 1.1%, FIG. 13): 3.4%
transfected CHO-K1 cells exhibiting fluorescence signals (gate R3), first FACS round (UAA stop codon; G-418 100 mg/L, negative control 0.4%, FIG. 12): 7.1%
FACS-positive cells (up to) [1]: about 10%
FACS-positive cells (up to) [2]: about 25%

gentamicin
expression of CFTR protein [3]: restore the expression
